PubChem BioAssay (NCI)
Where “and” joins values, the source holds several entries; their conditions need not be identical. Equal values may be shown once.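 Interpolation was linear, between the two tested concentrations surrounding the appropriate level; five concentrations were tested over 48 hours in 96-well plates. Here, GI50 denotes the concentration required for 50% inhibition of growth. TGI marks complete inhibition of growth.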

What was measured:
Assay in all cases: NCI anticancer screen, dose series, 48 h
[1] = system: SNB-75 CNS
[2] = system: CAKI-1 renal
[3] = system: NCI-H522 lung
[4] = system: SK-MEL-28 melanoma
[5] = system: OVCAR-5 ovarian
[6] = system: HCC-2998 colon
[7] = system: COLO 205 colon
[8] = system: KM12 colon
[9] = system: SK-MEL-5 melanoma
[10] = system: HS 578T breast

Row | Structure (SMILES) | GI50 [1] [µM] | TGI [1] | GI50 [2] [µM] | TGI [2] [µM] | GI50 [3] [µM] | TGI [3] | GI50 [4] [µM] | TGI [4] | GI50 [5] | TGI [5] | GI50 [6] [µM] | TGI [6] | GI50 [7] | TGI [7] | GI50 [8] [µM] | TGI [8] | GI50 [9] | TGI [9] | GI50 [10] [µM] | TGI [10]
1 | CN=C1NC(=O)/C(=C/c2ccc3ncccc3c2)S1 | 3.8 | > 21.2 µM | 4.6 | > 20.9 | 3.28 | > 25 µM | 10.5 | > 25 µM | 9.52 µM | > 25 µM | > 20 | > 25 µM | 7.45 µM | > 25 µM | 19.9 | > 25 µM | 7.44 µM | > 20.1 µM | 6.24 | > 21 µM
2 | O=C1c2ccccc2C(=O)c2c1ccc1[nH]c(CCl)nc21 | 1.56 | 10.8 µM | 2.61 | 9.89 | 1.63 | 3.53 µM | 6.58 | 18.8 µM | 10.2 µM | 24.5 µM | 3.41 | 12.7 µM | 2.54 µM | 8.62 µM | 3.14 | 10.8 µM | 1.68 µM | 3.07 µM | 2.94 | 14.7 µM
3 | Cn1cc(C2=C(c3ccc(OC[C@@H](O)CO)cc3)C(=O)NC2=O)c2ccccc21 | 2.23 | > 25 µM | > 25 | > 25 | > 25 | > 25 µM | > 25 | > 25 µM | > 25 µM | > 25 µM | > 25 | > 25 µM | > 25 µM | > 25 µM | > 25 | > 25 µM | > 25 µM | > 25 µM | 7.87 | > 25 µM
4 | CC(=O)OCCc1cccnc1/C=N/O | – | > 100 µM | – | > 100 | – | > 100 µM | – | > 100 µM | – | > 100 µM | – | > 100 µM | – | > 100 µM | – | > 100 µM | – | > 100 µM | – | –
5 | CCN1CCN(c2nc(NCCNc3ccnc4cc(Cl)ccc34)c3ccccc3n2)CC1 | 1.94 | 5.85 µM | – | – | 2.14 | 4.54 µM | 2.04 | 3.81 µM | 2.56 µM | 9.14 µM | 1.69 | 4.91 µM | 0.505 µM | 2.07 µM | 1.63 | 5.18 µM | 1.82 µM | 3.21 µM | 2.19 | 7.36 µM
6 | CCCCCCCCCCCCOC1C(CNCC2OC3OC(C)(C)OC3C2NC(=O)Nc2ccc(C(=O)OCC)cc2)OC2OC(C)(C)OC21 (stereo not given) | 5.52 | 21.1 µM | 6.74 | 19.8 | 2.04 | 3.78 µM | 1.97 | 4.3 µM | 4.18 µM | 17 µM | 1.8 | 3.23 µM | 1.99 µM | 3.76 µM | 1.96 | 3.69 µM | 2.05 µM | 4.13 µM | 1.67 | 3.76 µM
7 | CNC(=O)c1cc(Oc2ccc3c(c2)sc2nc(-c4ccc(N)cc4)cn23)ccn1 | 0.286 | > 100 µM | 0.329 | > 100 | 0.165 | 0.573 µM | 4.99 | > 100 µM | – | > 100 µM | 0.537 | > 50.5 µM | 0.305 µM | 27.2 µM | 0.196 | > 100 µM | 0.222 µM | 11.5 µM | 0.224 | > 100 µM
8 | C[C@@H]1Cc2c([nH]c3ccccc23)[C@@H](c2c(F)cc(/C=C/C(=O)O)cc2F)N1CC(C)(C)F | 12.9 | 28.6 µM | 18.8 | 61.8 | 14 | 33.6 µM | 13.1 | 30.9 µM | 22.2 µM | 46.8 µM | 10.4 | 25.6 µM | 16.5 µM | 39.8 µM | 11 | 28.7 µM | 10.7 µM | 24.4 µM | 12.8 | 45.4 µM
9 | COc1cc2c(NCCCCCCO[N+](=O)[O-])ncnc2c(OC)c1OC | – | 99.3 µM | – | 62.3 | – | 52.9 µM | – | > 83 µM | – | > 92.7 µM | – | 17.2 µM | – | 51.6 µM | – | 33.5 µM | – | 25 µM | – | > 87.4 µM
10 | CC(=O)/C=C/c1cccc(N=S)c1 | – | > 91.8 µM | – | > 100 | – | > 53.7 µM | – | 44.6 µM | – | > 100 µM | – | 34.6 µM | – | > 48 µM | – | 20.2 µM | – | 63.4 µM | – | –
11 | O=C(Nc1ccccc1[N+](=O)[O-])c1ccccc1 | – | > 100 µM | – | > 100 | – | > 100 µM | – | > 100 µM | – | > 100 µM | – | > 100 µM | – | > 100 µM | – | > 100 µM | – | > 100 µM | – | –
12 | O=c1c(Cl)c(Cl)cnn1-c1ccccc1 | – | 5.71 µM and 29.7 µM | – | – | – | 2.82 µM and 3.79 µM | – | 6.54 µM and 7.29 µM | 19.7 µM and 9.53 µM | 38.8 µM and 19.8 µM | – | 9.66 µM and 6.39 µM | 1.74 µM and 3.54 µM | 3.62 µM and 7.92 µM | – | 21.3 µM and 23.5 µM | 2.42 µM and 7.82 µM | 5.66 µM and 14.2 µM | – | 7.02 µM and 20.3 µM
13 | ClCc1ccccc1CSc1ncnc2nc[nH]c12 | > 60 | > 60 µM | > 60 | > 60 | – | – | > 60 | > 60 µM | > 60 µM | > 60 µM | > 60 | > 60 µM | > 60 µM | > 60 µM | > 60 | > 60 µM | > 60 µM | > 60 µM | > 60 | > 60 µM
14 | Cc1c(C(=O)/C=C/c2cccc3ccccc23)[n+](=O)c2ccccc2n1[O-] | – | 27.2 µM | – | 21.8 | – | 19.8 µM | – | 26.6 µM | – | 28.5 µM | – | 30.8 µM | – | 26.9 µM | – | 27.1 µM | – | – | – | –
15 | CC1=C(CCCOC(=O)NCCCl)C2=C(C)C3(CC3)[C@@](C)(O)C(=O)C2=C1 | 1.75 | 3.84 µM | – | – | 3.99 | 21.4 µM | 2.63 | 8.03 µM | 3.13 µM | > 100 µM | 2.35 | 7.24 µM | 2.06 µM | 6.65 µM | 10.5 | 88.2 µM | 1.73 µM | 3.35 µM | 8.31 | 87.4 µM
